This note sets out measurements from patent publication US12649748B2, “Wee1 inhibitor and use thereof” (JIANGSU TASLY DIYI PHARMACEUTICAL CO., LTD., priority 2021, dated 2026).

A short description of data set [1]: Plasma protein binding (PPB), human. To be noted: 5 h dialysis, read-out: Plasma protein binding rate (%) Human (converted). The class given is in vitro ADME. The procedure: Sample preparation: The compound was dissolved in DMSO to a stock solution of 10 mM, then the compound was diluted with PBS to a secondary stock solution of 0.02 mM, and then the above 0.02 mM was diluted to 1 μM using blank plasma, which was the sample to be incubated.
Dialysis set-up preparation: 400 μL of blank PBS was first added to the white wells of the equilibrated dialysis plate and 200 μL of the configured plasma sample was added to the red wells, and the dialysis plate was sealed with a sealing film.
Recovery plate preparation: Two 96-well deep-well plates, labelled T0 and T5, were prepared and all plasma samples were added at n=2. 300 μL of acetonitrile (Verapamil-HCl, 4 ng/mL) was added directly to the TO plate, followed by 50 μL of blank PBS mix well for 5 min and left to stand in a 4° C. refrigerator until the end of the incubation.
Experimental Operation: The dialysis device and the T5 plate were incubated together for 5 h in a microplate thermostatic shaker (37° C., using 300 rpm or minimum speed). At the end of the incubation, 300 μL of acetonitrile (Verapamil-HCl, 4 ng/mL) was added and 50 μL of PBS solution was added. At the end of the dialysis incubation, a new 96-well deep well plate was taken. […]

Data set [2] can be described thus: Compound pharmacokinetics in mice. In kind it is in vivo. To be noted: male ICR mice, oral gavage 10 mg/kg, plasma; for Cmax / AUC(0-inf) / half-life: mouse; for AUC(0-inf): read-out: AUCinf—Pred; for half-life: read-out: T½ (converted). The procedure: To investigate the pharmacokinetic properties of the compound in mice, six male ICR mice were given the compound by oral gavage (10 mg/kg) at the corresponding dose, and each route of administration was divided into two groups: group A mice had anticoagulated whole blood collected at 5 min, 30 min, 2 h and 8 h after administration, while group B mice had anticoagulated whole blood collected at 15 min, 1 h, 4 h and 24 h after administration, isolated plasma;
The plasma concentrations of the compounds were determined by LC-MS using a standard curve calibration method. Plasma concentration-time data were fitted to pharmacokinetic parameters using Winnolin 5.2 software.

In the next data set the target is CYP2D6 (Homo sapiens, UniProt P10635). Description: Inhibition of cytochrome P450, CYP2D6. The class given is in vitro ADME. Particulars: CYP2D6 enzyme, pH 7.4, probe EOMCC, read-out: CYP inhibition/% 2D6; for inhibition at 30 min, 1 µM: compound concentration 1 μM; for inhibition at 30 min, 10 µM: compound concentration 10 μM. On the procedure:
(§1) Enzymatic experiments were performed to quantify the inhibition of CYP450 enzyme activity of each isoform of CYP450 by small molecule inhibitors through fluorescence generated by the oxidation of the substrate by cytochrome P450. […] The Solution B composition used for the experiment was: 40 U/mL G6PDH (Sigma-aldrich, Cat #G6378). The substrate mix was 0.05× Solution A, 0.01× Solution B, 50 mM Potassium Phosphate, 0.01 mM BOMCC/0.01 mM EOMCC/0.001 mM DBOMF. […] The data were analyzed and processed using GraphPad Prism 6 software to obtain IC50 values.

In another data set the target is T1, CYP2B6 (Homo sapiens, UniProt P20813).
T1 sequence (P20813 1-491): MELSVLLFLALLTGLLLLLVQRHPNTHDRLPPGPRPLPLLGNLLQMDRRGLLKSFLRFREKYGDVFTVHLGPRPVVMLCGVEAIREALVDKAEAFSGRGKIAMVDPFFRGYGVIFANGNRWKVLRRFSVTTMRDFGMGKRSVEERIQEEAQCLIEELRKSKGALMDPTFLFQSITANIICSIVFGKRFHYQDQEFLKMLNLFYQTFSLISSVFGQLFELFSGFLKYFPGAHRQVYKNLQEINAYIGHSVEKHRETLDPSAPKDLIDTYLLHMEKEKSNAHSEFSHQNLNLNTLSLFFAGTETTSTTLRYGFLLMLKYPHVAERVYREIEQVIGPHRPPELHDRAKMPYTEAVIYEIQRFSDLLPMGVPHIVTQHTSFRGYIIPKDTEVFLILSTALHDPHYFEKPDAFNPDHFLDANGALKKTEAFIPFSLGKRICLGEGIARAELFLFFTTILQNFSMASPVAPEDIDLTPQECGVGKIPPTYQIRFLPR
Description: Inhibition of cytochrome P450, 2B6. In kind it is in vitro ADME. To be noted: CYP2B6 enzyme, pH 7.4, compound concentration 10 μM, read-out: CYP inhibition/% 2B6. The procedure: as §1

For a further data set, the target named is T2, hERG potassium channel (Homo sapiens, UniProt Q12809).
T2 construct: expressed in transfected cells; host or cells: CHO (Chinese hamster ovary) stably transfected cell line
T2 sequence (Q12809 whole entry): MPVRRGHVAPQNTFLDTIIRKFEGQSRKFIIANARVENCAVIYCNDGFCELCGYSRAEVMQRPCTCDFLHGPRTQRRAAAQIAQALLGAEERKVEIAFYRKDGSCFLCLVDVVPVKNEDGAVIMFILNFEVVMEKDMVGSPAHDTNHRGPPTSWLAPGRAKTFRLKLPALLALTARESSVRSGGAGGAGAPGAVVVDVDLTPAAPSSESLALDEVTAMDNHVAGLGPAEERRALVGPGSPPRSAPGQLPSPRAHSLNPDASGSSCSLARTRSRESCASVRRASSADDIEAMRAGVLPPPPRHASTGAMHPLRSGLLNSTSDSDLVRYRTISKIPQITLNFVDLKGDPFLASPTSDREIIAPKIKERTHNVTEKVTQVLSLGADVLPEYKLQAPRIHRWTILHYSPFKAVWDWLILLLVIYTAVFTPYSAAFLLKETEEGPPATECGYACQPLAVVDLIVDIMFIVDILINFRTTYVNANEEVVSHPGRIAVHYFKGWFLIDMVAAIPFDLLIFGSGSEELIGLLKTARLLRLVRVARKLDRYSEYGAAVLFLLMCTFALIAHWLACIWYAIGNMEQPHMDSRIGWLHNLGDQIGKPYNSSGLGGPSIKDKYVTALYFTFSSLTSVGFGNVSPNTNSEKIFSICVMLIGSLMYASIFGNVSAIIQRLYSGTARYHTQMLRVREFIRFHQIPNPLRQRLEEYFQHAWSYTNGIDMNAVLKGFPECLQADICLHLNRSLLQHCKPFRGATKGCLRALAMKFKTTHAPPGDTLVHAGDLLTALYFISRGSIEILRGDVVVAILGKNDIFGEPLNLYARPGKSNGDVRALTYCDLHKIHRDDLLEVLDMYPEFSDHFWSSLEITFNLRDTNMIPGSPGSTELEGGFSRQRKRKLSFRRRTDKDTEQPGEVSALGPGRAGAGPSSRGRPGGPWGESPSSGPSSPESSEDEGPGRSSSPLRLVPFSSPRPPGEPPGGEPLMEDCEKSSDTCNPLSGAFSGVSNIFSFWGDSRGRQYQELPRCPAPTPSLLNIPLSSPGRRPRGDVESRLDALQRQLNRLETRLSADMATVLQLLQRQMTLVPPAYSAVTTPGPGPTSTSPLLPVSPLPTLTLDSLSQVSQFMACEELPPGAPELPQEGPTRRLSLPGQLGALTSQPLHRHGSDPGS
Description: hERG potassium channel inhibition assay (patch clamp, CHO hERG cells). The class given is cell-based. To be noted: CHO cells overexpressing hERG potassium channel, whole cell patch clamp.

Sequence of CYP2D6 (P10635 whole entry, canonical isoform): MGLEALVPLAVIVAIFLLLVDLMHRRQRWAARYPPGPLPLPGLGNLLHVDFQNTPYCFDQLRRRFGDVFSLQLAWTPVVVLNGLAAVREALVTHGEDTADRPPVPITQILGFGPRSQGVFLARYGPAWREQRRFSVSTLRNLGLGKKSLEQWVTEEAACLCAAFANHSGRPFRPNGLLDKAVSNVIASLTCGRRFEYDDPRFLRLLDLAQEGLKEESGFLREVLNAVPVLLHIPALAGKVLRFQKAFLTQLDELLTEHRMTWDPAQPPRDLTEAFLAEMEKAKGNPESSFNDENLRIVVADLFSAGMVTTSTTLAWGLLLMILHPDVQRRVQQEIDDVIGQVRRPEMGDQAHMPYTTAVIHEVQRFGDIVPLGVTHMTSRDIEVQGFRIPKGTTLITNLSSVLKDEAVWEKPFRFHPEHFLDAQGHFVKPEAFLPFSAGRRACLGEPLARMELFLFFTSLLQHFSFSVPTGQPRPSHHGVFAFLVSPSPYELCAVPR
Description for hERG potassium channel: The cell line used for the patch clamp assay was a 10th generation CHO cell overexpressing hERG potassium channel cDNA.
CHO hERG cells were cultured in Petri dishes or flasks at 37° C. in a 5% CO2 incubator. Cells were dropped onto circular slides 24-48 hours prior to electrophysiological experiments and cultured in cell culture medium and used for experiments after the cells had been adhered.
Compound powders are dissolved in the extracellular solution and are subjected to a routine 5 to 10 minute sonication and shaking to ensure complete dissolution of the compound.
The final concentrations of compounds used for electrophysiological assays were 5, 20 μM and the final concentration of DMSO was 0.1%.
Cell membrane currents were recorded using a HEKA EPC-10 USB patch-clamp amplifier (HEKA Elektronik, Germany).
1) A coverslip with a large number of uniformly growing individual CHO hERG cells on its surface was taken. Place in a continuous recording cell on an inverted microscope, perfused with extracellular fluid (approximately 1 ml per minute) and recorded continuously, waiting for the current to stabilize. […]
3) The extracellular solution containing the drug to be tested was then perfused and recorded until the inhibitory effect of the drug on the hERG current reached a steady state, at which point the peak tail current was the post-drug current value. […]

In general, Cmax refers to the peak of the concentration-time curve. With `C=CCn1c(=O)c2cnc(Nc3ccc(N4CCN(C)CC4)cc3)nc2n1-c1cccc(C(C)(C)O)n1` [AZD-1775, reference compound], the fraction unbound at 5 h, 1 µM in data set [1] is 0.36. Further, in data set [2], the Cl_pred was 347 mL/min/kg, the peak level (Cmax) was 445 ng/mL, the AUC(0-inf) is 500 ng·h/mL and the half-life is 0.77 h.

Regarding `CN1CCN(c2ccc(Nc3ncc4cnn(-c5cccc(N=S(C)(C)=O)n5)c4n3)cc2)CC1` [Compound 1], the fraction unbound at 5 h, 1 µM in data set [1] is 0.144. Further, on CYP2D6, the inhibition at 30 min, 1 µM came out at 2.8% and the inhibition at 30 min, 10 µM is 2%. For the same compound, in data set [2], the Cl_pred was found to be 658 mL/min/kg, the Cmax stood at 169 ng/mL, the AUC(0-inf) was found to be 260 ng·h/mL and the half-life is 1.71 h. Besides, at CYP2B6, the inhibition at 30 min, 10 µM amounted to 4.38%. Besides, the inhibition at 5 µM at hERG potassium channel (5 μM) came to 5.07%. In addition, the inhibition at 20 µM against hERG potassium channel (20 μM) is 15.1%.

`CN1CCN(c2ccc(Nc3ncc4cnn(-c5cccc(C(C)(C)O)n5)c4n3)cc2)CC1` [Compound 2]: at CYP2D6, the inhibition at 30 min, 1 µM was found to be 0.3% and the inhibition at 30 min, 10 µM is 3.1%.

With `CS(C)(=O)=Nc1cccc(-n2ncc3cnc(Nc4ccc(N5CCOCC5)cc4)nc32)n1` [Compound 6], on CYP2D6, the inhibition at 30 min, 1 µM was -7.6% and the inhibition at 30 min, 10 µM was -19.4%.
